Reference: US7109193B2, “Tricyclic diazepines tocolytic oxytocin receptor antagonists” (Wyeth, priority 2001, dated 2006)

Molecular target: T1, human oxytocin receptor (Homo sapiens, UniProt P30559)
T1 construct: host or cells: CHO cells (pcDNA3.1 vector)
T1 sequence (P30559 1-389): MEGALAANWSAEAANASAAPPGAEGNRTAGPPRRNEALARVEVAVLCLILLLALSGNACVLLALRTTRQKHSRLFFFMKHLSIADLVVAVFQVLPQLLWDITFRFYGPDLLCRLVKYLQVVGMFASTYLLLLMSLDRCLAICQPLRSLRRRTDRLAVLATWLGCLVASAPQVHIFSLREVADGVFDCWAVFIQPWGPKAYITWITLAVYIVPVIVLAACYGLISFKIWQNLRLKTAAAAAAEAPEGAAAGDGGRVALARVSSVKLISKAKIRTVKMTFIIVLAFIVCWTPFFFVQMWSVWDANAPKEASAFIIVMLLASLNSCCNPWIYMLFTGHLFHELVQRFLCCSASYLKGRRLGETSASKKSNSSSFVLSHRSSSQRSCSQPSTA
Assay: Oxytocin binding in Chinese Hamster Ovary cell membranes expressing human oxytocin receptors
Conditions: 100 nM, CHO cell membranes, [3H]oxytocin, values without parentheses, read-out: OT % inhibition @ 100% nM

Compound	inhibition at 0.1 µM
Cc1cc(C(=O)N2Cc3ccc(C(=O)NCCN4CCCCC4)n3Cc3ccccc32)ccc1-c1ccccc1C(F)(F)F [Example 161, 10-{[2-Methyl-2′-(trifluoromethyl)[1,1′-biphenyl]-4-yl]carbonyl}-N-[2-(1-piperidinyl)ethyl]-10,11-dihydro-5H-pyrrolo[2,1-c][1,4]benzodiazepine-3-carboxamide]	53%
COc1cc(C(=O)N2Cc3ccc(C(=O)N(C)C4CCN(C)CC4)n3Cc3ccccc32)ccc1-c1ccccc1C [Example 179, 10-[(2-Methoxy-2′-methyl[1,1′-biphenyl]-4-yl)carbonyl]-N-methyl-N-(1-methyl-4-piperidinyl)-10,11-dihydro-5H-pyrrolo[2,1-c][1,4]benzodiazepine-3-carboxamide]	93%
COc1ccccc1-c1ccc(C(=O)N2Cc3ccc(C(=O)NCCC4CCCN4C)n3Cc3ccccc32)cc1C (stereo not drawn) [Example 162, 10-[(2′-Methoxy-2-methyl[1,1′-biphenyl]-4-yl)carbonyl]-N-[2-(1-methyl-2-pyrrolidinyl)ethyl]-10,11-dihydro-5H-pyrrolo[2,1-c][1,4]benzodiazepine-3-carboxamide]	71%
COc1cc(C(=O)N2Cc3ccc(C(=O)N4CCN(CCN5CCOCC5)CC4)n3Cc3ccccc32)ccc1-c1ccccc1C [Example 210, {10-[(2-Methoxy-2′-methyl[1,1′-biphenyl]-4-yl)carbonyl]-10,11-dihydro-5H-pyrrolo[2,1-c][1,4]benzodiazepin-3-yl}{4-[2-(4-morpholinyl)ethyl]-1-piperazinyl}methanone]	82%
CN1CCCC1CCNC(=O)c1ccc2n1Cc1ccccc1N(C(=O)c1ccc(-c3cccc4ccccc34)cc1Cl)C2 (stereo not drawn) [Example 173, 10-[2-Chloro-4-(1-naphthyl)benzoyl]-N-[2-(1-methyl-2-pyrrolidinyl)ethyl]-10,11-dihydro-5H-pyrrolo[2,1-c][1,4]benzodiazepine-3-carboxamide]	21%
C=CCN1CCN(C(=O)c2ccc3n2Cc2ccccc2N(C(=O)c2ccc(-c4cccc(OC)c4)c(C)c2)C3)CC1 [Example 223, (4-Allyl-1-piperazinyl){10-[(3′-methoxy-2-methyl[1,1′-biphenyl]-4-yl)carbonyl]-10,11-dihydro-5H-pyrrolo[2,1-c][1,4]benzodiazepin-3-yl}methanone]	71%
Cc1ccccc1-c1ccc(C(=O)N2Cc3ccc(C(=O)N4CCN(CCN5CCOCC5)CC4)n3Cc3ccccc32)cc1C [Example 218, {10-[(2,2′-Dimethyl[1,1′-biphenyl]-4-yl)carbonyl]-10,11-dihydro-5H-pyrrolo[2,1-c][1,4]benzodiazepin-3-yl}{4-[2-(4-morpholinyl)ethyl]-1-piperazinyl}methanone]	98%
Cc1ccccc1-c1ccc(C(=O)N2Cc3ccc(C(=O)N(C)C4CCN(C)CC4)n3Cc3ccccc32)cc1 [Example 178, N-Methyl-10-[(2′-methyl[1,1′-biphenyl]-4-yl)carbonyl]-N-(1-methyl-4-piperidinyl)-10,11-dihydro-5H-pyrrolo[2,1-c][1,4]benzodiazepine-3-carboxamide]	93%
COc1cc(C(=O)N2Cc3ccc(C(=O)NCCC4CCCN4C)n3Cc3ccccc32)ccc1-c1cccc2ccccc12 (stereo not drawn) [Example 170, 10-[3-Methoxy-4-(1-naphthyl)benzoyl]-N-[2-(1-methyl-2-pyrrolidinyl)ethyl]-10,11-dihydro-5H-pyrrolo[2,1-c][1,4]benzodiazepine-3-carboxamide]	47%
COc1cc(-c2ccccc2C)c(Cl)cc1C(=O)N1Cc2ccc(C(=O)N(C)C3CCN(C)C3)n2Cc2ccccc21 (stereo not drawn) [Example 190, 10-[(6-Chloro-3-methoxy-2′-methyl[1,1′-biphenyl]-4-yl)carbonyl]-N-methyl-N-(1-methyl-3-pyrrolidinyl)-10,11-dihydro-5H-pyrrolo[2,1-c][1,4]benzodiazepine-3-carboxamide]	99%
COc1cc(C(=O)N2Cc3ccc(C(=O)N4CCN(CCN(C)C)CC4)n3Cc3ccccc32)ccc1-c1ccccc1C [Example 201, {4-[2-(Dimethylamino)ethyl]-1-piperazinyl}{10-[(2-methoxy-2′-methyl[1,1′-biphenyl]-4-yl)carbonyl]-10,11-dihydro-5H-pyrrolo[2,1-c][1,4]benzodiazepin-3-yl}methanone]	86%
O=C(c1ccc2n1Cc1ccccc1N(C(=O)c1ccc(-c3cccc4ccccc34)cc1Cl)C2)N1CCN(CCN2CCOCC2)CC1 [Example 215, {10-[2-Chloro-4-(1-naphthyl)benzoyl]-10,11-dihydro-5H-pyrrolo[2,1-c][1,4]benzodiazepin-3-yl}{4-[2-(4-morpholinyl)ethyl]-1-piperazinyl}methanone]	26%
COc1ccccc1-c1ccc(C(=O)N2Cc3ccc(C(=O)N(C)C4CCN(C)CC4)n3Cc3ccccc32)cc1OC [Example 183, 10-[(2,2′-Dimethoxy[1,1′-biphenyl]-4-yl)carbonyl]-N-methyl-N-(1-methyl-4-piperidinyl)-10,11-dihydro-5H-pyrrolo[2,1-c][1,4]benzodiazepine-3-carboxamide]	97%
C=CCN1CCN(C(=O)c2ccc3n2Cc2ccccc2N(C(=O)c2ccc(-c4ccccc4OC)c(OC)c2)C3)CC1 [Example 227, (4-Allyl-1-piperazinyl){10-[(2,2′-dimethoxy[1,1′-biphenyl]-4-yl)carbonyl]-10,11-dihydro-5H -pyrrolo[2,1-c][1,4]benzodiazepin-3-yl}methanone]	69%
COc1cc(-c2ccccc2C)c(Cl)cc1C(=O)N1Cc2ccc(C(=O)N3CCN(CCN4CCOCC4)CC3)n2Cc2ccccc21 [Example 217, {10-[(6-Chloro-3-methoxy-2′-methyl[1,1′-biphenyl]-4-yl)carbonyl]-10,11-dihydro-5H -pyrrolo[2,1-c][1,4]benzodiazepin-3-yl}{4-[2-(4-morpholinyl)ethyl]-1-piperazinyl}methanone]	98%
COc1ccccc1-c1ccc(C(=O)N2Cc3ccc(C(=O)NCCC4CCCN4C)n3Cc3ccccc32)cc1OC (stereo not drawn) [Example 171, 10-[(2,2′-Dimethoxy[1,1′-biphenyl]-4-yl)carbonyl]-N-[2-(1-methyl-2-pyrrolidinyl)ethyl]-10,11-dihydro-5H-pyrrolo[2,1-c][1,4]benzodiazepine-3-carboxamide]	40%

Continued, values first:

inhibition at 0.1 µM	Compound
77%	C=CCN1CCN(C(=O)c2ccc3n2Cc2ccccc2N(C(=O)c2ccc(-c4cccc(OC)c4)c(OC)c2)C3)CC1 [Example 228, (4-Allyl-1-piperazinyl){10-[(2,3′-dimethoxy[1,1′-biphenyl]-4-yl)carbonyl]-10,11-dihydro-5H -pyrrolo[2,1-c][1,4]benzodiazepin-3-yl}methanone]
86%	Cc1ccccc1-c1ccc(C(=O)N2Cc3ccc(C(=O)N4CCN(C(C)C)CC4)n3Cc3ccccc32)cc1C [Example 233, {10-[(2,2′-Dimethyl[1,1′-biphenyl]-4-yl)carbonyl]-10,11-dihydro-5H-pyrrolo[2,1-c][1,4]benzodiazepin-3-yl}(4-isopropyl-1-piperazinyl)methanone]
81%	COc1ccccc1-c1ccc(C(=O)N2Cc3ccc(C(=O)N4CCN(C(C)C)CC4)n3Cc3ccccc32)cc1C [Example 232, (4-Isopropyl-1-piperazinyl){10-[(2′-methoxy-2-methyl[1,1′-biphenyl]-4-yl)carbonyl]-10,11-dihydro-5H-pyrrolo[2,1-c][1,4]benzodiazepin-3-yl}methanone]
51%	COc1ccccc1-c1ccc(C(=O)N2Cc3ccc(C(=O)N4CCN(C(C)C)CC4)n3Cc3ccccc32)cc1OC [Example 241, {10-[(2,2′-Dimethoxy[1,1-biphenyl]4-yl)carbonyl]-10,11-dihydro-5H-pyrrolo[2,1-c][1,4]benzodiazepin-3-yl}(4-isopropyl-1-piperazinyl)methanone]
61%	COc1cccc(-c2cc(OC)c(C(=O)N3Cc4ccc(C(=O)N5CCN(C(C)C)CC5)n4Cc4ccccc43)cc2Cl)c1 [Example 239, {10-[(6-Chloro-3,3′-dimethoxy[1,1′-biphenyl]-4-yl)carbonyl]-10,11-dihydro-5H-pyrrolo[2,1-c][1,4]benzodiazepin-3-yl}(4-isopropyl-1-piperazinyl)methanone]
63%	C=CCN1CCN(C(=O)c2ccc3n2Cc2ccccc2N(C(=O)c2ccc(-c4cccc5ccccc45)c(OC)c2)C3)CC1 [Example 231, (4-Allyl-1-piperazinyl){10-[3-methoxy-4-(1-naphthyl)benzoyl]-10,11-dihydro-5H -pyrrolo[2,1-c][1,4]benzodiazepin-3-yl}methanone]
62%	Cc1cc(C(=O)N2Cc3ccc(C(=O)N4CCN(C(C)C)CC4)n3Cc3ccccc32)ccc1-c1ccccc1C(F)(F)F [Example 240, (4-Isopropyl-1-piperazinyl)(10-{[2-methyl-2′-(trifluoromethyl)[1,1′-biphenyl]-4-yl]carbonyl}-10,11-dihydro-5H-pyrrolo[2,1-c][1,4]benzodiazepin-3-yl)methanone]
46%	COc1cc(C(=O)N2Cc3ccc(C(=O)N4CCN(C(C)C)CC4)n3Cc3ccccc32)ccc1-c1cccc2ccccc12 [Example 236, (4-Isopropyl-1-piperazinyl){10-[3-methoxy-4-(1-naphthyl)benzoyl]-10,11-dihydro-5H -pyrrolo[2,1-c][1,4]benzodiazepin-3-yl}methanone]
